Results as given in patent publication US10870638B2, “Pyridazinone compound or its salt, and herbicide containing it” (ISHIHARA SANGYO KAISHA, LTD., priority 2016, dated 2020).

Experiments:
Assay type in all cases: in vivo
Conditions in all cases: active ingredient amount 31 g/ha, 14th day after application
[1] = system: redroot pigweed (Amaranthus retroflexus L.); test: Test Example 2: soil application on the day after sowing, growth inhibition rate on 14th day
Outline: (§1)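 Upland soil pots; sowing, then next-day soil spraying of compound formulations (1,000 L/ha water) at defined a.i. doses. Day-14 visual rating of inhibition on a 0–100 scale, where 100 means complete kill.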

[2] = system: crabgrass (Digitaris sanquinalis L.); test: as above
Outline: as §1

[3] = system: barnyardgrass (Echinochloa crus-qalli L.); test: as above
Outline: as §1

[4] = system: prickly sida (Sida spinosa L.); test: as above
Outline: as §1

[5] = system: velvetleaf (Abutilon theophrasti MEDIC.); test: as above
Outline: as §1

rice (Oryza sativa L.) [6] = test: as above
Outline: as §1

[7] = system: green foxtail (Setaria viridis L.); test: as above
Outline: as §1

corn (Zea mays L.) [8] = test: as above
Outline: as §1

[9] = system: wheat (Triticum aestivum L.); test: as above
Outline: as §1

[10] = system: soybean (Glycine max Merr.); test: as above
Outline: as §1

[11] = system: redroot pigweed (Amaranthus retroflexus L.); test: Test Example 1: foliar treatment, growth inhibition rate on 14th day
Outline: (§2)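 Visual 0–100% inhibition scoring (100 = complete kill) at 14 days after foliar treatment of soil-grown seedlings at species-specific leaf stages, with the compound sprayed as a wettable powder or emulsifiable concentrate dilution.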

[12] = system: wild oat (Avena fatua L.); test: as above
Outline: as §2

[13] = system: barnyardgrass (Echinochloa crus-qalli L.); test: as above
Outline: as §2

[14] = system: italian ryegrass (Lolium multiflorum Lam.); test: as above
Outline: as §2

rice (Oryza sativa L.) [15] = test: as above
Outline: as §2

[16] = system: green foxtail (Setaria viridis L.); test: as above
Outline: as §2

corn (Zea mays L.) [17] = test: as above
Outline: as §2

[18] = system: crabgrass (Digitaria sanquinalis L.); test: as above
Outline: as §2

[19] = system: wheat (Triticum aestivum L.); test: as above
Outline: as §2

[20] = system: soybean (Glycine max Merr.); test: as above
Outline: as §2

[21] = visual, 0 = non-treated, 100 = complete kill

Compound	Growth inhibition rate (%) Redroot pigweed [1] [%]	Growth inhibition rate (%) Crabgrass [2] [%]	Growth inhibition rate (%) Barnyardgrass [3] [%]	Growth inhibition rate (%) Prickly sida [4] [%]	Growth inhibition rate (%) Velvetleaf [5] [%]	Growth inhibition rate (%) Rice (rice (Oryza sativa L.) [6]) [%]	Growth inhibition rate (%) Green foxtail [7] [%]	Growth inhibition rate (%) Corn (corn (Zea mays L.) [8]) [%]	Growth inhibition rate (%) Wheat [9] [%]	Growth inhibition rate (%) Soybean [10] [%]	Growth inhibition rate (%) Redroot pigweed [11] [%]	Growth inhibition rate (%) Wild oat [12] [%]	Growth inhibition rate (%) Barnyardgrass [13] [%]	Growth inhibition rate (%) Italian ryegrass [14] [%]	Growth inhibition rate (%) Rice (rice (Oryza sativa L.) [15]) [%]	Growth inhibition rate (%) Green foxtail [16] [%]	Growth inhibition rate (%) Corn (corn (Zea mays L.) [17]) [%]	Growth inhibition rate (%) Crabgrass [18] [%]	Growth inhibition rate (%) Wheat [19] [%]	Growth inhibition rate (%) Soybean [20] [%]	further results
CC(=O)Oc1c(C)nn(C)c(=O)c1-c1cc(Oc2ncc(C(F)(F)F)cc2Cl)ccc1C1CC1 [1-150]	0	98	99	0	0	0	98	0	0	0	0	100	100	100	88	100	95	100	99	0	
Cc1ccc(Oc2nc3ccc(Cl)cc3s2)cc1-c1c(O)c(C)nn(C)c1=O [Compound 2-10]	0	50	95	0	0	40	85	30	0	0	0	10	99	10	0	99	0	40	10	30	
C#CCOC(=O)Oc1c(C)nn(C)c(=O)c1-c1cc(Oc2cnc3cc(Cl)ccc3n2)ccc1C [Compound 3-64]	0	50	98	0	0	0	93	0	0	0											Growth inhibition rate (%) Redroot pigweed [11, 21]: 0%; Growth inhibition rate (%) Wild oat [12, 21]: 83%; Growth inhibition rate (%) Barnyardgrass [13, 21]: 98%; Growth inhibition rate (%) Italian ryegrass [14, 21]: 85%; Growth inhibition rate (%) Rice (rice (Oryza sativa L.) [15]; [21]): 0%; Growth inhibition rate (%) Green foxtail [16, 21]: 100%; Growth inhibition rate (%) Corn (corn (Zea mays L.) [17]; [21]): 50%; Growth inhibition rate (%) Crabgrass [18, 21]: 90%; Growth inhibition rate (%) Wheat [19, 21]: 60%; Growth inhibition rate (%) Soybean [20, 21]: 0%
Cc1ccc(Oc2cnc3cc(Cl)ccc3n2)cc1-c1c(OC(=O)Oc2ccc(F)cc2)c(C)nn(C)c1=O [Compound 3-57]	0	30	90	0	0	0	95	40	0	30											Growth inhibition rate (%) Redroot pigweed [11, 21]: 0%; Growth inhibition rate (%) Wild oat [12, 21]: 99%; Growth inhibition rate (%) Barnyardgrass [13, 21]: 100%; Growth inhibition rate (%) Italian ryegrass [14, 21]: 95%; Growth inhibition rate (%) Rice (rice (Oryza sativa L.) [15]; [21]): 0%; Growth inhibition rate (%) Green foxtail [16, 21]: 100%; Growth inhibition rate (%) Corn (corn (Zea mays L.) [17]; [21]): 25%; Growth inhibition rate (%) Crabgrass [18, 21]: 99%; Growth inhibition rate (%) Wheat [19, 21]: 95%; Growth inhibition rate (%) Soybean [20, 21]: 25%
Cc1ccc(Oc2ncc(C(F)(F)F)cc2Cl)cc1-c1c(O)c(C)nn(C)c1=O [1-1]	0	100	85	0	0	20	100	50	0	0	10	98	100	98	80	99	90	95	65	0	
CC(=O)Oc1c(C)nn(C)c(=O)c1-c1cc(Oc2cc(C(F)(F)F)c(C(F)(F)F)cn2)ccc1C [Compound 2-126]	0	98	100	0	0	0	100	30	10	0	0	100	100	100	93	100	100	100	99	20	
CSCCC(=O)Oc1c(C)nn(C)c(=O)c1-c1cc(Oc2cnc3cc(Cl)ccc3n2)ccc1C [Compound 3-50]	0	80	99	0	0	0	98	0	0	0											Growth inhibition rate (%) Redroot pigweed [11, 21]: 0%; Growth inhibition rate (%) Wild oat [12, 21]: 98%; Growth inhibition rate (%) Barnyardgrass [13, 21]: 100%; Growth inhibition rate (%) Italian ryegrass [14, 21]: 93%; Growth inhibition rate (%) Rice (rice (Oryza sativa L.) [15]; [21]): 60%; Growth inhibition rate (%) Green foxtail [16, 21]: 100%; Growth inhibition rate (%) Corn (corn (Zea mays L.) [17]; [21]): 15%; Growth inhibition rate (%) Crabgrass [18, 21]: 98%; Growth inhibition rate (%) Wheat [19, 21]: 99%; Growth inhibition rate (%) Soybean [20, 21]: 10%
CC(=O)Oc1c(C)nn(C)c(=O)c1-c1cc(Oc2ncc(C(F)(F)F)cc2Cl)c(C)cc1C [1-152]	0	35	80	0	0	0	85	10	0	10	0	100	100	99	85	100	90	99	88	30	
